Measurements: publication PMC5400565, “Real-time near-infrared fluorescence imaging using cRGD-ZW800-1 for intraoperative visualization of multiple cancer types” (Oncotarget, 2017)

Columns and labels:
Potassium Channel hERG = Potassium Channel hERG (Homo sapiens, UniProt Q12809)
PDE3A = biological target: T1, PDE3A (Homo sapiens, UniProt Q14432); assay: Off-target screening (Eurofins Cerep), PDE3A; assay type: biochemical
T1 construct: Eurofins Cerep SA (contract screen)

Adrenergic β2 = biological target: T2, Adrenergic β2 (Homo sapiens, UniProt P07550); assay: Off-target screening (Eurofins Cerep), β2; assay type: binding
T2 construct: Eurofins Cerep SA (contract screening)

Adrenergic β1 = biological target: T3, Adrenergic β1 (Homo sapiens, UniProt P08588); assay: Off-target screening (Eurofins Cerep), β1; assay type: binding
T3 construct: Eurofins Cerep SA (contract screening)

Muscarinic M2 = biological target: T4, Muscarinic M2 (Homo sapiens, UniProt P08172); assay: Off-target screening (Eurofins Cerep), M2; assay type: binding
T4 construct: Eurofins Cerep SA (contract screening)

[1] = Toxicology study in rats (unpublished data)
Opioid µ (MOP) = biological target: T5, Opioid µ (MOP) (Homo sapiens, UniProt P35372); assay: Off-target screening (Eurofins Cerep), µ (MOP); assay type: binding
T5 construct: Eurofins Cerep SA (contract screening)

Muscarinic M3 = biological target: T6, Muscarinic M3 (Homo sapiens, UniProt P20309); assay: Off-target screening (Eurofins Cerep), M3; assay type: binding
T6 construct: Eurofins Cerep SA (contract screening)

BxPC-3 pancreatic tumors = assay: NIR fluorescence imaging, BxPC-3 pancreatic tumors; assay type: in vivo, mice; conditions: all three dose groups (1.0, 10, 30 nmol), FLARE and Pearl, skin as background
Description: To induce subcutaneous tumors, colorectal cancer cells (HT-29) were injected at 4 sites on the back (500,000 cells per spot). Subsequently, these colorectal tumor cells were transplanted on the colon of other mice, as described by Tseng et al.. Approximately 500,000 pancreatic tumor cells (BxPC-3) were injected into the pancreas, as previously described by Kim et al.. Approximately 40,000 oral tumor cells (OSC-19) were injected in the tongue, as previously described by van Driel et al.. Approximately 500,000 breast tumor cells (MCF-7) were injected in both sides of the mammary fat pad to induce breast cancer tumors.
All animals were imaged using a Pearl® imager (LI-COR, Lincoln, NE) and an original FLARE® prototype. Animals with HT-29 tumors were imaged at 4 and 24 h post injection; animals with BxPC-3 and OSC-19 tumors at 4 h only. Animals with MCF-7 tumors were imaged at 0.5, 1, 2, 4, 6, 8, 24 and 48 h post injection. […] TBRs were calculated by dividing the tumor signal by the background signal. […]
Mice were administered with 0.25 (HT-29 model only), 1.0, 10, or 30 nmol cRGD-ZW800-1 to evaluate tumor signals, biodistribution, and to calculate TBRs (n = 3 per dose group). At 4 h (BxPC-3 model) and 24 h (HT-29 model) after injection, mice were fully dissected and fluorescence intensity of their organs was measured.

Muscarinic M1 = biological target: T7, Muscarinic M1 (Homo sapiens, UniProt P11229); assay: biochemical; assay type: binding
T7 construct: Eurofins Cerep SA (contract screening)

Opioid δ (DOP) = biological target: T8, Opioid δ (DOP) (Homo sapiens, UniProt P41143); assay: Off-target screening (Eurofins Cerep), δ (DOP); assay type: binding
T8 construct: Eurofins Cerep SA (contract screening)

KV channel = assay: Off-target screening (Eurofins Cerep), KV channel; assay type: binding
Text: Off-target interactions are binding of tracers to other components on the cell surface than the actual target site. These non-specific interactions are often of low affinity and easily missed, but can have significant effects. We outsourced the screening for in vitro for off-target interactions of cRGD-ZW800-1 to Eurofins Cerep SA, Le bois l’Evêque, France. They assessed the percentage of inhibition of a reference compound in 44 selected targets, including G protein-coupled receptors (GPCRs), transporters, ion channels, nuclear receptors, kinases and other non-kinase enzymes. These targets were recommended by four major pharmaceutical companies. The complete list is included in Supplementary Table 1 of the Supplementary Data. Each assay was performed twice using 10 μM cRGD-ZW800-1 and a reference compound. Inhibition higher than 50% was considered to represent a significant effect of cRGD-ZW800-1. Results showing between 20% and 50% were considered weak to moderate effects, while lower than 20% was not considered significant and mostly attributable to variability of the signal around the control level.

Histamine H2 = biological target: T9, Histamine H2 (Homo sapiens, UniProt P25021); assay: Off-target screening (Eurofins Cerep), H2; assay type: binding
T9 construct: Eurofins Cerep SA (contract screening)

Serotonin 5-HT1B = biological target: T10, Serotonin 5-HT1B (Rattus norvegicus, UniProt P28564); assay: Off-target screening (Eurofins Cerep), 5-HT1B; assay type: binding
T10 construct: Eurofins Cerep SA (contract screening)

U-87 MG cells = assay: In vitro competition with unlabeled cRGD, U-87 MG; assay type: cell-based, human; conditions: 500 nM cRGD-ZW800-1 + 500 nM unlabeled cRGD (1:1), 37°C, 2 h, vs cells without unlabeled cRGD, triplicate, p = 0.02
Description: For in vitro competition, U-87 MG (αvβ3 and αvβ5 positive, αvβ6 negative) and HT-29 (αvβ3 negative, αvβ5 and αvβ6 positive) cells were plated in a 96-well plate at a density of ∼40,000 and ∼60,000 cells per well, respectively. Subsequently, 500 nM of cRGD-ZW800-1 was simultaneously added to the cells and incubated at 37°C for 2 h. At the same time, half of the cells were also incubated with 500 nM unlabeled (“cold”) cRGD.
Both the cells in the binding and the competition experiment were then washed twice and imaged with the Odyssey NIR scanner (LI-COR Biosciences, Lincoln, Nebraska: focus offset 3 mm; 800-nm channel). Next, cells were permeabilized with a 40/60 mixture of acetone and methanol followed by a washing step and a 5 min incubation with ToPro3 (1/2000, Invitrogen), a far red fluorescent dye (642/661nm). The wells were then washed and again imaged with the Odyssey scanner (focus offset 3 mm; 700-nm channel) to quantify the number of cells in each well. The experiments were performed in triplicate.

[2] = 10 μM, mean of 2, read-out: % of Control Specific Binding Mean
[3] = 10 μM cRGD-ZW800-1, format H, Ag, performed twice, read-out: % Inhibition of Control Specific Binding
[4] = read-out: % Inhibition of Control Specific Binding
[5] = read-out: % of Control Specific Binding Mean

T7 sequence (P11229 whole entry): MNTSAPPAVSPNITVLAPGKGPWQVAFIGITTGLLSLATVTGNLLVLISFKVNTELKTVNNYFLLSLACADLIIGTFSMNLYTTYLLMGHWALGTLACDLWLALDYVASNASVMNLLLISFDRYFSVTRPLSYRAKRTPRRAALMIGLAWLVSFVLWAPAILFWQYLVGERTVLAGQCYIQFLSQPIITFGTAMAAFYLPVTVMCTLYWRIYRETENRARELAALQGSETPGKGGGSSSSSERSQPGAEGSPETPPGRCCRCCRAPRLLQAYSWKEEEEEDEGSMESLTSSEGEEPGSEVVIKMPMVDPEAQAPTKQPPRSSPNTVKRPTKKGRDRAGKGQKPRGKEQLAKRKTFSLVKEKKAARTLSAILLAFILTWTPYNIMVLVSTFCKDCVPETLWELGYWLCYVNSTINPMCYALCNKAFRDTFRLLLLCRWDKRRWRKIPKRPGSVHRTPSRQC
T6 sequence (P20309 whole entry): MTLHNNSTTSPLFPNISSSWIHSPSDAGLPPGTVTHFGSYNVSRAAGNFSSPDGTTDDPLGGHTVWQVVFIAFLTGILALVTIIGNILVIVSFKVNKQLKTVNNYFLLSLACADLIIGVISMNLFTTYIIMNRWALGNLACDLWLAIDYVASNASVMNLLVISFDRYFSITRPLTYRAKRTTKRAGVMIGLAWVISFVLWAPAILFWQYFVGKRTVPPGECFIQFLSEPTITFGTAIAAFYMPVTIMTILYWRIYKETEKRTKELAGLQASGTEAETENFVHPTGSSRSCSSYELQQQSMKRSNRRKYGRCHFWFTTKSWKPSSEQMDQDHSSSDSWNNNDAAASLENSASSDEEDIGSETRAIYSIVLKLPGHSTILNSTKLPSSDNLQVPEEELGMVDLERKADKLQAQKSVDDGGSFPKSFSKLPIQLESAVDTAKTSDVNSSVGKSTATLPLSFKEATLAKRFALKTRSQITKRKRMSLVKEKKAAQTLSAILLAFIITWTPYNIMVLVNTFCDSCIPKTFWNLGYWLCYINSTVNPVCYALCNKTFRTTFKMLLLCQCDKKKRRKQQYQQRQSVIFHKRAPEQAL
T2 sequence (P07550 whole entry): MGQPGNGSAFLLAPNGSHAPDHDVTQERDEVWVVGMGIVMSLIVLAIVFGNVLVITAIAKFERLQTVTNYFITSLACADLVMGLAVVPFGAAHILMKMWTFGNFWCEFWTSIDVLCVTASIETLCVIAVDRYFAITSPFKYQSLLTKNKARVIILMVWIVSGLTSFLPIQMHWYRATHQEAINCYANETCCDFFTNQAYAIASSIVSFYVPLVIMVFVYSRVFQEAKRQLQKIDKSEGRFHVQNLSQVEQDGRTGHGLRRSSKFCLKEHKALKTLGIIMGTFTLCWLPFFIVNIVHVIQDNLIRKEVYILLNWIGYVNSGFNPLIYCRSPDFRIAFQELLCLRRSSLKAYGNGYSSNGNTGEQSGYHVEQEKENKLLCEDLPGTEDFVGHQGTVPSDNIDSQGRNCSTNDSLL
T3 sequence (P08588 whole entry): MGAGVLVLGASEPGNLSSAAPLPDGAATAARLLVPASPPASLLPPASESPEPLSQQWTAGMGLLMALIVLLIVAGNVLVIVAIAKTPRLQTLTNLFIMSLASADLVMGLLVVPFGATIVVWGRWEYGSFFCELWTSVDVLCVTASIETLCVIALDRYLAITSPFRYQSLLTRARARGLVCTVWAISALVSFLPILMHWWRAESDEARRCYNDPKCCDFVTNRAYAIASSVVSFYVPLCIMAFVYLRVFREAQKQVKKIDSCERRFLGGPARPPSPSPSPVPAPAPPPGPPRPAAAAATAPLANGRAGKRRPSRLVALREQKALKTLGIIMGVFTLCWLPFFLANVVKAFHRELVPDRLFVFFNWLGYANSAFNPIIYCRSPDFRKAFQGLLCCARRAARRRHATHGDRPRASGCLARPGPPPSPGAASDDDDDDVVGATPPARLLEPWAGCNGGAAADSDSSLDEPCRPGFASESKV
T5 sequence (P35372 whole entry): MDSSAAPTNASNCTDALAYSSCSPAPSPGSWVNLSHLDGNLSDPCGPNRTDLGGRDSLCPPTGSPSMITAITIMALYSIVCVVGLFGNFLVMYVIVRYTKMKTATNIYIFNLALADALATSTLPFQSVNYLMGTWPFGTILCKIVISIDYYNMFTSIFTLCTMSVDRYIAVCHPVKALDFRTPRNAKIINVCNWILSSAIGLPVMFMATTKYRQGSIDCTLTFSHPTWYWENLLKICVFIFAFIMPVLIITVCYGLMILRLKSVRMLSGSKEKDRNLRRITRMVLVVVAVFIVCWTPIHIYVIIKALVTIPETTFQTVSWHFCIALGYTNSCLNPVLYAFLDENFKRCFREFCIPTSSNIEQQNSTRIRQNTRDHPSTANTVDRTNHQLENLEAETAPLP
T1 sequence (Q14432 whole entry): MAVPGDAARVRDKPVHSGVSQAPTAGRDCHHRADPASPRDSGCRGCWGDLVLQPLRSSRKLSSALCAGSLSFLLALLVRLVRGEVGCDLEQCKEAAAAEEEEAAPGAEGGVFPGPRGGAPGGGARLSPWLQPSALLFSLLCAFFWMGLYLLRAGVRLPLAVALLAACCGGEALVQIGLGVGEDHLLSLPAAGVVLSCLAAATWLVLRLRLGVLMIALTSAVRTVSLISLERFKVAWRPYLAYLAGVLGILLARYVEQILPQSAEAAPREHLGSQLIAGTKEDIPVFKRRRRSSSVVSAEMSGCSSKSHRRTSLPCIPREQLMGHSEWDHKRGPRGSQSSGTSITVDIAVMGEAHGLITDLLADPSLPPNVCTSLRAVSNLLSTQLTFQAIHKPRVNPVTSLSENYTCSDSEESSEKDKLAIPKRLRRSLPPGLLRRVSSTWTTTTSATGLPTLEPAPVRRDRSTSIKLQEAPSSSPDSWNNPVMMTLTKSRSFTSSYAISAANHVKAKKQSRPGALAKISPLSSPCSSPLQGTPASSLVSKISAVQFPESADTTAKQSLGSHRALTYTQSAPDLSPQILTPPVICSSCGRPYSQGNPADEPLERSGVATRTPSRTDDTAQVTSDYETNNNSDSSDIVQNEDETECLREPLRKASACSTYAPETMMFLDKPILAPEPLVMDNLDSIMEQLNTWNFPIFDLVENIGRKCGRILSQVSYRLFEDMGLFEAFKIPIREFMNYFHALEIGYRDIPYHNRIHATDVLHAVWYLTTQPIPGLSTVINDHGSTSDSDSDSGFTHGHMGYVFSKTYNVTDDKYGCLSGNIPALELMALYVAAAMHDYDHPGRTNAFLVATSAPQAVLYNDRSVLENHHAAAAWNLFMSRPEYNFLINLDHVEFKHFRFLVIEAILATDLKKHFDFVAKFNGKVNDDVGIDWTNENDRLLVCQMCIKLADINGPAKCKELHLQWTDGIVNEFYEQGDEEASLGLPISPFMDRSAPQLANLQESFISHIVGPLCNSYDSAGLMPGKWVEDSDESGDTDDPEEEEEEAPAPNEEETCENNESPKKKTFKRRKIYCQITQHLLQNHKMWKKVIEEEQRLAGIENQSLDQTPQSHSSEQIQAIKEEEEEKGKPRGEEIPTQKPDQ
T10 sequence (P28564 whole entry): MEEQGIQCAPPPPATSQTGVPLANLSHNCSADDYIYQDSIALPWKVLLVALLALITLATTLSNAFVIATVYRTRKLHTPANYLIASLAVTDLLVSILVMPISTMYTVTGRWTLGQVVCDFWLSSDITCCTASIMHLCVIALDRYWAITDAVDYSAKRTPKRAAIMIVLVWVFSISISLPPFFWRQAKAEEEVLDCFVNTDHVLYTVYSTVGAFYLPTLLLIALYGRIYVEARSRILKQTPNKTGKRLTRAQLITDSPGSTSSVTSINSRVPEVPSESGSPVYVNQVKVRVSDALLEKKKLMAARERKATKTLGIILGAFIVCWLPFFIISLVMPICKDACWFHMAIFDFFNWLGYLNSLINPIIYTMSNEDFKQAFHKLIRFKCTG
T9 sequence (P25021 whole entry): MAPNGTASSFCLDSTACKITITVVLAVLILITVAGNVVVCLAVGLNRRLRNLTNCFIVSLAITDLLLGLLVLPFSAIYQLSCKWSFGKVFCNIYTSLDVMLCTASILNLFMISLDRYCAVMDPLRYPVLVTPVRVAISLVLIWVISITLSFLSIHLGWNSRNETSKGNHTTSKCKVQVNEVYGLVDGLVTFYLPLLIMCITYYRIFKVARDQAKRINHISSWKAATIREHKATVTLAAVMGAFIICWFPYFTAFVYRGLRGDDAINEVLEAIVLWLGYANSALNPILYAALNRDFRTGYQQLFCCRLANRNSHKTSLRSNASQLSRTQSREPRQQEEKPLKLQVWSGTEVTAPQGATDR
T8 sequence (P41143 whole entry): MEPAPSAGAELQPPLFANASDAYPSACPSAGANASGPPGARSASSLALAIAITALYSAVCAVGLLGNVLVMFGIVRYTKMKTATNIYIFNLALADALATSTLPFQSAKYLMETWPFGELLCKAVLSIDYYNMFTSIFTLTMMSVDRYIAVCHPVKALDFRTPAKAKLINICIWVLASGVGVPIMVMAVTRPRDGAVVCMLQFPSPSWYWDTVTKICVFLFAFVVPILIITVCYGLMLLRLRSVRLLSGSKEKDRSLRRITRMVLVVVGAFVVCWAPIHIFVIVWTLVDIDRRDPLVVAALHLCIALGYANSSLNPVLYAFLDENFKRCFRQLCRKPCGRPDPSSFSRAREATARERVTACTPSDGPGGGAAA

Work on `CC1(C)C(/C=C/C2=C(Oc3ccc(CCC(=O)NCCCC[C@@H]4NC(=O)[C@@H](Cc5ccc(O)cc5)NC(=O)[C@H](CC(=O)O)NC(=O)CNC(=O)[C@H](CCCNC(=N)N)NC4=O)cc3)C(=C/C=C3/N(CCC[N+](C)(C)C)c4ccc(S(=O)(=O)O)cc4C3(C)C)/CCC2)=[N+](CCC[N+](C)(C)C)c2ccc(S(=O)(=O)O)cc21` [cRGD-ZW800-1] yielded an activity at 10 µM (Potassium Channel hERG) of 106%, an inhibition at 10 µM (PDE3A; 10 μM cRGD-ZW800-1, format H, performed twice, read-out: % Inhibition of Control Specific Binding) of -12% and a remaining activity at 10 µM (PDE3A; [2]) of 112%. It also gave an inhibition at 10 µM (Adrenergic β2; [3]) of 5%, a remaining activity at 10 µM (Adrenergic β2; [2]) of 95% and an inhibition at 10 µM (Adrenergic β1; [4]) of 18%. The remaining activity at 10 µM (Adrenergic β1; [5]) was 82.3%, the inhibition at 10 µM (Muscarinic M2; 10 μM cRGD-ZW800-1, format H, An, performed twice, read-out: % Inhibition of Control Specific Binding) was -20% and the remaining activity at 10 µM (Muscarinic M2; [2]) was 120%. The “safe starting dose for first in-human studies” value ([1]; 10% of the HED of the NOAEL (FDA recommendation)) was 0.08 mg/kg, the “human equivalent dose (HED) of the NOAEL” value ([1]; NOAEL of 5.0 mg/kg in rats adjusted for body surface area) was 0.80 mg/kg and the toxicology findings ([1]; rats, intravenous injection of 5.0 mg/kg, unpublished data) was “neither clinical symptoms, nor treatment-related histopathological, biochemical, and hematological abnormalities”. The “no observable adverse event level (NOAEL)” value ([1]; rats, intravenous injection, unpublished data) was “at least 5.0 mg/kg”, the inhibition at 10 µM (Opioid µ (MOP); [3]) was 10% and the remaining activity at 10 µM (Opioid µ (MOP); [2]) was 90.3%. The inhibition at 10 µM (Muscarinic M3; [4]) was -7%, the remaining activity at 10 µM (Muscarinic M3; [5]) was 107% and the “TBRs at 4 h post injection” value (BxPC-3 pancreatic tumors) was greater than 2. For the same compound, the inhibition at 10 µM (Muscarinic M1; [4]) was 5%, the remaining activity at 10 µM (Muscarinic M1; [5]) was 95.5% and the inhibition at 10 µM (Opioid δ (DOP); [3]) was 14%. For the same compound, the remaining activity at 10 µM (Opioid δ (DOP); [2]) was 85.5%, the “% Inhibition of Control Specific Binding” value (KV channel; 10 μM cRGD-ZW800-1, format An, performed twice) was 2% and the “% of Control Specific Binding Mean” value (KV channel; 10 μM, mean of 2) was 98.0%. The inhibition at 10 µM (Histamine H2; [4]) was -4%, the remaining activity at 10 µM (Histamine H2; [5]) was 104% and the inhibition at 10 µM (Serotonin 5-HT1B; 10 μM cRGD-ZW800-1, format An, performed twice, read-out: % Inhibition of Control Specific Binding) was 1%. For the same compound, the remaining activity at 10 µM (Serotonin 5-HT1B; [2]) was 99.1% and the “reduction of fluorescence signal by unlabeled cRGD” value (U-87 MG cells) was 36%.
